# Target: T1, human TRPV1 (Homo sapiens, UniProt Q8NER1)
# T1 construct: expressed in transfected cells; host or cells: CHO-K1
# Assay: Measurement of capsaicin-induced Ca influx in human TRPV1 transformed CHO cell line using FDSS-6000
# Type: cell-based
# Details: concentration at which the capsaicin concentration-reaction curve is shifted two times to the right, human TRPV1 transformed CHO cells
# From the text: [Measurement of Capsaicin-Induced Ca Influx in Human TRPV1 Transformed CHO Cell Line]
# (1) Establishment of Human TRPV1 Transformed CHO Cell Line
# Human vanilloid receptor 1 (hTRPV1) cDNA was cloned from a human brain. The cloned hTRPV1 cDNA was incorporated in a pCAGGS vector. The gene of the vector was introduced to a CHO-K1 cell line, thus performing transformation. Clones obtained by limiting dilution were stimulated with capsaicin. Clones with a high responsiveness were selected using an increase in the Ca concentration as an indicator. The selected clones were used for the following experiment.
# (2) Measurement of Ca Influx Using FDSS-6000
# The human TRPV1 transformed CHO cells were seeded in a 96-well plate (with black walls and transparent bottoms, manufactured by Greiner) at a density of 40,000 cells per well. The cells were cultured at 37° C. in 5% CO2 for one night. A loading solution of FLIPR Calcium 3 assay kit (manufactured by Molecular Devices Corporation) containing 2.5 mmol/L of probenecid was then added to each of the wells in the same amount as the culture medium, and the cells were cultured at 37° C. for 60 minutes. After the cells were stimulated with capsaicin (1 nmol/L to 1 μmol/L), the change in the Ca concentration in the cells was measured using FDSS-6000 (λex: 480 nm, λem: 540 nm, manufactured by Hamamatsu Photonics K.K.) for three minutes. The integrated values of the increase rate of the Ca concentration in the cells were calculated for a group treated with the compounds of the present invention and a group treated with a medium, thus allowing capsaicin concentration-reaction curves to be obtained. A concentration (A2 value) of each of the compounds of the present invention, at which the capsaicin concentration-reaction curve obtained when the cells were treated with the medium was shifted two times to the right side, was calculated. The inhibiting effects of the test compounds were compared using this value as an indicator.
# In the case where a compound of the present invention is an agonist, when the cells are treated with the compound of the present invention prior to the capsaicin stimulation, the Ca influx is observed. In Table 1, compounds of the present invention having an A2 value of less than 100 nM are represented by A, and compounds having an A2 value of 100 nM or more are represented by B. When the A2 values of the compounds of the present invention were measured by the above-described method, the compounds have an intensity of 1 μM or less.
# T1 sequence (Q8NER1 whole entry): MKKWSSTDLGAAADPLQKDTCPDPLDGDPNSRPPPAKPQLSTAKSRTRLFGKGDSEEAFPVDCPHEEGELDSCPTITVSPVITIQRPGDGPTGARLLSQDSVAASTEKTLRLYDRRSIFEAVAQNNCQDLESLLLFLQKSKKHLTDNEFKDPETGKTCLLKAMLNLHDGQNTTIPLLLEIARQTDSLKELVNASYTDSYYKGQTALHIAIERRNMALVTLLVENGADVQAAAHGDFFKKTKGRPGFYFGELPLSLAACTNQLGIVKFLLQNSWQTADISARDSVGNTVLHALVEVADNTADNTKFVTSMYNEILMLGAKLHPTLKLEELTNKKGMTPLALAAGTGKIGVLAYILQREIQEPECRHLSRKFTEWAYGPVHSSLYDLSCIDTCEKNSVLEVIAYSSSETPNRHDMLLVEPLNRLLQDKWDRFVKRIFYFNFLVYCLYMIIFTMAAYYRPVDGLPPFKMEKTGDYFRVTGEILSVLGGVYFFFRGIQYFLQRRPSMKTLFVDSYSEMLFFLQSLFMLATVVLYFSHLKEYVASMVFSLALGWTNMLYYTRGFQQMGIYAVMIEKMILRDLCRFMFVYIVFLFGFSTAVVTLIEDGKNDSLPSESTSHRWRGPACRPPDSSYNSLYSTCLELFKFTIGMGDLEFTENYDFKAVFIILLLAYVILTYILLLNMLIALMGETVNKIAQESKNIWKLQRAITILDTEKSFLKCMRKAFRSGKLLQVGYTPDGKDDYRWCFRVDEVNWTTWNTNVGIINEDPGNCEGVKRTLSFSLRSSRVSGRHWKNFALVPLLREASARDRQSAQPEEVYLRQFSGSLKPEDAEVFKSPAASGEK
row,Compound,A2 VALUE
1,"O=C(C=C1COCc2cc(C(F)(F)F)ccc21)Nc1cccc2c1CC(O)CC2 (stereo in doubt) [Example 237, (E)-2-(7-trifluoromethyl-isochroman-4-ylidene)-N-(7-hydroxy-5,6,7,8-tetrahydronaphthalen-1-yl)acetamide]",A (compounds of the present invention having an A2 value of less than 100 nM are represented by A)
2,"O=C(/C=C1\CCOc2ccccc21)Nc1ccc2c(c1)OCCO2 [Example 1, (E)-2-(chroman-4-ylidene)-N-(2,3-dihydrobenzo[b][1,4]dioxin-6-yl)acetamide]",B (compounds having an A2 value of 100 nM or more are represented by B)
3,"O=C(/C=C1\CCOc2ccccc21)Nc1cccc2cnccc12 [Example 2, (E)-2-(chroman-4-ylidene)-N-(isoquinolin-5-yl)acetamide]",B (compounds having an A2 value of 100 nM or more are represented by B)
4,"CC(C)(C)c1ccc2c(c1)OCC/C2=C\C(=O)NC1CCc2cccnc2C1 (stereo not shown) [Example 3, (E)-2-(7-tert-butyl-chroman-4-ylidene)-N-(5,6,7,8-tetrahydroquinolin-7-yl)acetamide]",A (compounds of the present invention having an A2 value of less than 100 nM are represented by A)
5,"CC(C)(C)c1ccc2c(c1)OCC/C2=C\C(=O)Nc1cccc2cnccc12 [Example 4, (E)-2-(7-tert-butyl-chroman-4-ylidene)-N-(isoquinolin-5-yl)acetamide]",A (compounds of the present invention having an A2 value of less than 100 nM are represented by A)
6,"CC(C)(C)c1ccc2c(c1)OCC/C2=C\C(=O)Nc1ccc2cccnc2c1 [Example 5, (E)-2-(7-tert-butyl-chroman-4-ylidene)-N-(quinolin-7-yl)acetamide]",A (compounds of the present invention having an A2 value of less than 100 nM are represented by A)
7,"O=C(/C=C1\CCOc2cc(C(F)(F)F)ccc21)NC1CCc2cccnc2C1 (stereo not shown) [Example 6, (E)-2-(7-trifluoromethyl-chroman-4-ylidene)-N-(5,6,7,8-tetrahydroquinolin-7-yl)acetamide]",A (compounds of the present invention having an A2 value of less than 100 nM are represented by A)
8,"O=C(/C=C1\CCOc2cc(C(F)(F)F)ccc21)Nc1cccc2cnccc12 [Example 7, (E)-2-(7-trifluoromethyl-chroman-4-ylidene)-N-(isoquinolin-5-yl)acetamide]",A (compounds of the present invention having an A2 value of less than 100 nM are represented by A)
9,"O=C(/C=C1\CCOc2cc(C(F)(F)F)ccc21)Nc1ccc2cccnc2c1 [Example 8, (E)-2-(7-trifluoromethyl-chroman-4-ylidene)-N-(quinolin-7-yl)acetamide]",A (compounds of the present invention having an A2 value of less than 100 nM are represented by A)
10,"O=C(/C=C1\CCCOc2cc(C(F)(F)F)ccc21)Nc1ccc2c(c1)OCCO2 [Example 9, (E)-2-(8-trifluoromethyl-3,4-dihydrobenzo[b]oxepin-5(2H)-ylidene)-N-(2,3-dihydrobenzo[b][1,4]dioxin-6-yl)acetamide]",A (compounds of the present invention having an A2 value of less than 100 nM are represented by A)
11,"O=C(/C=C1\CCCOc2cc(C(F)(F)F)ccc21)NC1CCc2cccnc2C1 (stereo not shown) [Example 10, (E)-2-(8-trifluoromethyl-3,4-dihydrobenzo[b]oxepin-5(2H)-ylidene)-N-(5,6,7,8-tetrahydroquinolin-7-yl)acetamide]",A (compounds of the present invention having an A2 value of less than 100 nM are represented by A)
12,"O=C(/C=C1\CCCOc2cc(C(F)(F)F)ccc21)Nc1cccc2cnccc12 [Example 11, (E)-2-(8-trifluoromethyl-3,4-dihydrobenzo[b]oxepin-5(2H)-ylidene)-N-(isoquinolin-5-yl)acetamide]",A (compounds of the present invention having an A2 value of less than 100 nM are represented by A)
13,"O=C(/C=C1\CCCOc2cc(C(F)(F)F)ccc21)Nc1ccc2nccnc2c1 [Example 12, (E)-2-(8-trifluoromethyl-3,4-dihydrobenzo[b]oxepin-5(2H)-ylidene)-N-(quinoxalin-6-yl)acetamide]",A (compounds of the present invention having an A2 value of less than 100 nM are represented by A)
14,"O=C(/C=C1\CCCOc2cc(C(F)(F)F)ccc21)Nc1ccc2cccnc2c1 [Example 13, (E)-2-(8-trifluoromethyl-3,4-dihydrobenzo[b]oxepin-5(2H)-ylidene)-N-(quinolin-7-yl)acetamide]",A (compounds of the present invention having an A2 value of less than 100 nM are represented by A)
15,"CC(C)(C)c1ccc(NC(=O)/C=C2\CCCOc3cc(C(F)(F)F)ccc32)cc1 [Example 14, (E)-N-(4-tert-butylphenyl)-2-(8-trifluoromethyl-3,4-dihydrobenzo[b]oxepin-5(2H)-ylidene)acetamide]",A (compounds of the present invention having an A2 value of less than 100 nM are represented by A)
16,"O=C(/C=C1\CCCOc2cc(C(F)(F)F)ccc21)Nc1ccc(C(F)(F)F)cc1 [Example 15, (E)-2-(8-trifluoromethyl-3,4-dihydrobenzo[b]oxepin-5(2H)-ylidene)-N-(4-trifluoromethylphenyl)acetamide]",B (compounds having an A2 value of 100 nM or more are represented by B)
17,"COc1cccc(NC(=O)/C=C2\CCCOc3cc(C(F)(F)F)ccc32)c1 [Example 16, (E)-2-(8-trifluoromethyl-3,4-dihydrobenzo[b]oxepin-5(2H)-ylidene)-N-(3-methoxyphenyl)acetamide]",A (compounds of the present invention having an A2 value of less than 100 nM are represented by A)
18,"CN1CCCc2ccc(NC(=O)/C=C3\CCCOc4cc(C(F)(F)F)ccc43)cc21 [Example 17, (E)-2-(8-trifluoromethyl-3,4-dihydrobenzo[b]oxepin-5(2H)-ylidene)-N-(1,2,3,4-tetrahydro-1-methylquinolin-7-yl)acetamide]",A (compounds of the present invention having an A2 value of less than 100 nM are represented by A)
19,"O=C(/C=C1\CCCOc2cc(C(F)(F)F)ccc21)Nc1cccc2ccc(O)cc12 [Example 18, (E)-2-(8-trifluoromethyl-3,4-dihydrobenzo[b]oxepin-5(2H)-ylidene)-N-(7-hydroxynaphthalen-1-yl)acetamide]",A (compounds of the present invention having an A2 value of less than 100 nM are represented by A)
20,"Cc1nc2cc(NC(=O)/C=C3\CCCOc4cc(C(F)(F)F)ccc43)ccc2s1 [Example 19, (E)-2-(8-trifluoromethyl-3,4-dihydrobenzo[b]oxepin-5(2H)-ylidene)-N-(2-methyl-1,3-benzothiazolo-5-yl)acetamide]",A (compounds of the present invention having an A2 value of less than 100 nM are represented by A)
21,"O=C(/C=C1\CCCOc2cc(C(F)(F)F)ccc21)Nc1cccnc1N1CCOCC1 [Example 20, (E)-2-(8-trifluoromethyl-3,4-dihydrobenzo[b]oxepin-5(2H)-ylidene)-N-(2-morpholinopyridin-3-yl)acetamide]",B (compounds having an A2 value of 100 nM or more are represented by B)
22,"Cc1cc(=O)oc2cc(NC(=O)/C=C3\CCCOc4cc(C(F)(F)F)ccc43)ccc12 [Example 21, (E)-2-(8-trifluoromethyl-3,4-dihydrobenzo[b]oxepin-5(2H)-ylidene)-N-(4-methyl-2-oxo-2H-chromen-7-yl)acetamide]",B (compounds having an A2 value of 100 nM or more are represented by B)

# — patent publication US7910751B2, “Heterocyclidene acetamide derivative” (Mochida Pharmaceutical Co., Ltd., priority 2005, dated 2011)
